According to publication PMC4501388 (European journal of medicinal chemistry, 2015):
Several values for one entry are separate records, joined by “and”; a condition that tells them apart may be missing. Identical values can stand only once. One block for each substance: values may come before it.

Key:
TK1 [1] = target: T1, TK1 (Homo sapiens, UniProt P04183); assay: Phosphate transfer assay; format: biochemical; conditions: 100 μM nucleoside analogue and 100 μM ATP
T1 sequence (P04183 1-234): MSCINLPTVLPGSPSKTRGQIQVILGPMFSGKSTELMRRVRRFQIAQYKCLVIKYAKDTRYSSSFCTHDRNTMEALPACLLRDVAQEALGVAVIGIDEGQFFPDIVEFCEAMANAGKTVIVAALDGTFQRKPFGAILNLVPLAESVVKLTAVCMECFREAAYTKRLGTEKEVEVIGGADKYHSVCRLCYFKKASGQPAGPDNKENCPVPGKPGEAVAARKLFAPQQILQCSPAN

TK1 [2] = target: T1, TK1; assay: Enzyme kinetic studies; format: biochemical; conditions: 1.95–500 μM nucleoside analogue and 100 μM ATP
[3] = Stability during storage in aqueous solutions; format: physicochemical
TK1 [4] = target: T1, TK1; assay: Competitive TK1 inhibition studies; conditions: 0.5 μM dThd, 5 mM ATP, 0–250.00 μM nucleoside analogue
[5] = test system: rats bearing intracerebral RG2 gliomas; assay: In vivo biodistribution study, boron determination by ICP-OES; design: species or system rat
RG2 glioma cells = assay: In vitro metabolomic HRMS study; format: cell-based, rat
[6] = test system: TK1(+)- and TK1(−) L929 cells; conditions: cited from earlier work

rPR (phosphorylation rate relative to that of dThd) (TK1 [1]): 12.3 ± 8.7%
Substance: 3-({2-[4-(closo-1,7-carboranyl)butyl]amino}-2-oxoethyl)thymidine [Compound 30]

rPR (phosphorylation rate relative to that of dThd) (TK1 [1]): 44.4 ± 8.7%
Substance: 3-({2-[4-(closo-1,7-Carboranyl)butyl]amino}ethyl)thymidine [Compound 18]

rPR (phosphorylation rate relative to that of dThd) (TK1 [1]): 40.0% and 40.0 ± 11.2%
Km (TK1 [2]): 24.3 ± 2.1 µM
kcat (TK1 [2]): 5.1 s⁻¹
rkcat/Km (kcat/Km relative to that of 1) (TK1 [2]): 5.8%
Boron concentration, Tumor ([5]; 100 μg boron i.c. by ALZET pump over 24 h, RG2 glioma, Fischer rats): 8.9 µg/g and 8.8 ± 2.9 µg/g
Ratio T/Bl (tumor/blood ratio) ([5]; tumor to blood boron ratio, i.c. over 24 h): 9.3
Ratio T/B ([5]; tumor to brain boron ratio, i.c. over 24 h): 4.3
Di- and triphosphate metabolites (RG2 glioma cells; RG2 cells, HRMS positive and negative ion mode): could not be detected
5′-Monophosphate metabolite formation (RG2 glioma cells; TK1(+) RG2 cells, 17.5 μM, 2 hours, HRMS): monophosphorylated
Stability during storage [3]: stable
IC50 (TK1 [4]): 37.5 ± 6.3 µM
Substance: 3-[5-{2-(2,3-dihydroxyprop-1-yl)-o-carboran-1-yl}pentan-1-yl]thymidine [Compound 2]
Di- and triphosphorylation ([6]; TK1(+) L929 cells): did not seem to occur
Intracellular monophosphate metabolite formation ([6]; TK1(+) vs TK1(−) L929 cells, tritiated compound): production of tritiated 2-MP in TK1(+) L929 cells but not in their TK1(−) L929 counterparts

rPR (phosphorylation rate relative to that of dThd) (TK1 [1]): 19.5 ± 5.3%
Substance: 3-({3-[4-(closo-1,7-Carboranyl)butyl]amino}propyl)thymidine [Compound 20]

The next lines start with the substance.

Substance: 3-({2-[2-(closo-1,7-Carboranyl)ethyl]amino}-2-oxoethyl)thymidine [Compound 28]
rPR (phosphorylation rate relative to that of dThd) (TK1 [1]): 19.2 ± 4.5%

Substance: 3-({2-[3-(closo-1,7-carboranyl)propyl]amino}-2-oxoethyl)thymidine [Compound 29]
rPR (phosphorylation rate relative to that of dThd) (TK1 [1]): 14.5 ± 4.8%

Substance: 3-({4-[4-(closo-1,7-Carboranyl)butyl]amino}butyl)thymidine [Compound 22]
rPR (phosphorylation rate relative to that of dThd) (TK1 [1]): 38% and 38.0 ± 6.5%
Km (TK1 [2]): 39.8 ± 10.4 µM
kcat (TK1 [2]): 5.4 s⁻¹
rkcat/Km (kcat/Km relative to that of 1) (TK1 [2]): 3.7%
Stability during storage [3]: stable
IC50 (TK1 [4]): > 250 µM

Substance: 3-({3-[3-(closo-1,7-Carboranyl)propyl]amino}propyl)thymidine [Compound 19]
rPR (phosphorylation rate relative to that of dThd) (TK1 [1]): 18.8 ± 4.8%

Substance: 3-({4-[3-(closo-1,7-Carboranyl)propyl]amino}butyl)thymidine [Compound 21]
rPR (phosphorylation rate relative to that of dThd) (TK1 [1]): 45% and 45.2 ± 3.8%
Km (TK1 [2]): 80.1 ± 37.6 µM
kcat (TK1 [2]): 5.9 s⁻¹
rkcat/Km (kcat/Km relative to that of 1) (TK1 [2]): 2.0%
Stability during storage [3]: stable
IC50 (TK1 [4]): > 250 µM

Substance: 3-({2-[3-(closo-1,7-Carboranyl)propyl]amino}ethyl)thymidine [Compound 17]
rPR (phosphorylation rate relative to that of dThd) (TK1 [1]): 24.5 ± 7.8%

Substance: 3-{[3-(closo-1,7-Carboranyl)propyl]amino}thymidine [Compound 9]
rPR (phosphorylation rate relative to that of dThd) (TK1 [1]): ~ 30%

Substance: 3-({2-[2-(closo-1,7-Carboranyl)ethyl]amino}ethyl)thymidine [Compound 16]
rPR (phosphorylation rate relative to that of dThd) (TK1 [1]): 35.2 ± 5.3%
